Measured values: patent publication US20030119186A1, “Enzyme-mediated modification of fibrin for tissue engineering: fibrin formulations with peptides” (Eidgenossische Technische Hochschule Zurich, priority 1998, published 2003)
Several values for one entry are separate records, joined by “and”; a condition that tells them apart may be missing. Equal entries are not always repeated.

Experiments:
[1] = test system: day 8 chick dorsal root ganglia; experiment: Neurite outgrowth from dorsal root ganglia embedded in three dimensional peptide-modified fibrin gels, normalized to unmodified fibrin; format: cell-based; conditions: for concentration of incorporated peptide giving maximal effect on neurite outgrowth / correlation between peptide concentration and level of enhancement of neurite outgrowth / peptide concentration showing maximal enhancement of neurite outgrowth: single peptide cross-linked into fibrin, concentration series; for concentration of incorporated peptide giving maximal effect on neurite outgrowth / peptide concentration showing maximal enhancement of neurite outgrowth: growth at 24 and 48 hr; for Enhancement of Neurite Outgrowth (%): bi-domain peptide cross-linked into fibrin at 8 mol/mol fg without heparin, 48 hours, relative to unmodified fibrin
Description: FIG. 1 Enhancement of neurite outgrowth with HAV (SEQ. I.D. NO. 6) modified fibrin gels. A concentration series of HAV (SEQ. I.D. NO. 6) cross-linked into fibrin was tested in triplicate with day 8 chick dorsal root ganglia. The level of growth at 24 and 48 hours was calculated and normalized to growth in unmodified fibrin. Mean and standard error of the mean are shown. Legend to FIG. 1: -[…]- 24 Hours, -⋄- 48 Hours.
FIG. 8 Heparin binding peptides derived from three separate proteins, NCAM (SEQ. I.D. NO. 7), platelet factor 4 and antithrombin III were cross-linked into fibrin at 8 mol/mol fg. The level of neurite outgrowth at 48 hours was normalized against growth in unmodified fibrin and is shown below. Additionally, controls of crosslinked peptide with heparin or just soluble peptide were tested. […] Mean and standard error of the mean are shown. Legend for FIG. 8: ? Peptide Grafted at 8 mol/mol Fg, □ Peptide Grafted at 8 mol/mol Fg with Soluble Heparin, ? Peptide Added in Soluble Phase.
Multiple peptide sequences from extracellular matrix proteins have been chosen. These proteins were chosen in part because of their reported ability to enhance neurite outgrowth (Yamada, 1991, Tashiro, et al., 1989). These proteins have been tested at various concentrations. To test these peptides, specific selected peptide sequences were cross-linked into a three dimensional fibrin matrix with a day 8 dorsal root ganglia embedded into the gels. The neurites were grown for 48 hr, and the migration rate of the neurites extending from the ganglia was quantified for each condition at both 24 and 48 hr. This growth was then normalized to the growth in unmodified fibrin. […] HAV (SEQ. I.D. NO. 6) achieved a maximal effect at 2 mol/mol fg while RGD (SEQ. I.D. NO. 2) achieved a maximal effect at 1.5 mol/mol fg of incorporated peptide.
In one example, the peptide was cross-linked into the gel alone and in the second example, it was incorporated in the presence of heparin. […] Therefore, the effects of interaction between the growing neurites and either a heparin binding domain or heparin itself could be determined. When the peptide was incorporated without heparin present, it was able to enhance the extension of neurites from day 8 chick dorsal root ganglia. Three bi-domain peptides, each with a different heparin binding domain, were tested and gave statistically better growth than unmodified fibrin (FIG. 8). The level of improvement ranged from 75% to 25%. This level of enhancement could be correlated to the binding affinity of the heparin binding domain that was incorporated (Table 3). When heparin was added at the beginning of the study, it was discovered that this abolished the effect, resulting in growth similar to that seen in unmodified fibrin.

[2] = Elution from heparin affinity column (relative heparin binding affinity); conditions: relative heparin binding affinity of bi-domain peptide
Text: Table 3 Provides results of the relative heparin binding affinity and enhancement of three dimensional neurite outgrowth for several heparin binding peptides. There is a correlation between the binding strength for each peptide and the percent enhancement of neurite outgrowth.

Row | Substance | concentration of incorporated peptide giving maximal effect on neurite outgrowth [1] | correlation between peptide concentration and level of enhancement of neurite outgrowth [1] | peptide concentration showing maximal enhancement of neurite outgrowth [1] | Enhancement of Neurite Outgrowth (%) [1] | Elution from Heparin Affinity Column (Mol NaCl) [2]
1 | HAV (heparin binding peptide) | 2 mol/mol fg |  |  |  | 
2 | IKVAV (heparin binding peptide) |  | linear correlation | 8 mol peptide/mol fibrinogen |  | 
3 | LNQEQVSP K(βA)FAKLAARLYRKA [ATIII] |  |  |  | 73.1% | 0.67 Mol NaCl
4 | LNQEQVSP KHKGRDVILKKDVR (LNQEQVSPKHKGRDVILKKDVR; heparin binding sequence) [PF4] |  |  |  | 20.2% | 0.34 Mol NaCl
5 | LNQEQVSP YKKIIKKL (LNQEQVSPYKKIIKKL) [NCAM] |  |  |  | 24.5% | 0.35 Mol NaCl
6 | RGD | 2 mol/mol fg and 1.5 mol/mol fg |  |  |  | 
7 | RNIAEIIKDI |  | linear correlation | 8 mol peptide/mol fibrinogen |  | 
8 | YIGSR (heparin binding peptide) |  | linear correlation | 6 mol peptide/mol fibrinogen |  | 
